Experimental data taken from PMC13079396, “Use of a cytochrome P450 humanized mouse model to refine schistosomiasis drug discovery” (Proceedings of the National Academy of Sciences of the …, 2026).
Where “and” joins values, the source holds several entries; their conditions need not be identical. Equal values may be shown once. Read-outs that look alike come from different tables or passages of the source.

Experiments:
[1] = Range-finding PK study, uninfected 8HUM mice, oral rac-PZQ; format: in vivo, mouse; conditions: for AUC(0-t) / Cmax: female, mouse, whole blood, uninfected 8HUM mice, single oral 25 mg/kg rac-PZQ, total blood, n = 2
Experimental: Dose formulations were prepared on the day of dosing. […] Supernatants were analysed by LC-MS/MS immediately. […] Chromatographic separation was […] […] […] used. […] Intrinsic clearance determination […] […] Lower […] […] Analytical acceptance criteria were reported previously (1).

[2] = PK in S. mansoni infected WT mice, oral rac-PZQ; format: in vivo; conditions: female, mouse, whole blood, single oral 400 mg/kg rac-PZQ at 41 d postinfection, total blood, n = 3
[3] = PK in S. mansoni infected 8HUM mice, oral rac-PZQ; format: in vivo; conditions: female, mouse, whole blood, total blood, n = 3
[4] = Range-finding PK study, uninfected WT mice, oral rac-PZQ; conditions: female, WT (wild-type), mouse, whole blood, 400 mg/kg
[5] = format: in vitro ADME; conditions: mouse, microsomes
[6] = format: in vitro ADME; conditions: human, microsomes
Experimental: Supernatants were analysed by LC-MS/MS immediately. […] Chromatographic separation was achieved using a previously described method (2) with minor modifications. […] The flow rate was 1.2 mL/min. […] used. […] Intrinsic clearance determination […] Lower […]

S. mansoni [7] = assay: PZQ-induced efficacy (worm and egg burden reduction) in S. mansoni infected WT mice; format: in vivo, Schistosoma mansoni
From the text: (§1) Lower […] Analytical acceptance criteria were reported previously (1). […] Reactions were […]

S. mansoni [8] = assay: PZQ-induced efficacy (worm and egg burden reduction) in S. mansoni infected 8HUM mice; format: in vivo, Schistosoma mansoni; conditions: for worm burden reduction: day 47
From the text: as §1

S. mansoni [9] = conditions: cited from earlier work
[10] = single oral 400 mg/kg, day 47, 400 mg/kg

| SMILES | AUC(0-t) [1] | Cmax [1] | AUC(0-t) [2] | Cmax [2] | AUC(0-t) ([3]; single oral 100 mg/kg rac-PZQ) | Cmax ([3]; single oral 100 mg/kg rac-PZQ) | AUC(0-t) ([3]; single oral 200 mg/kg rac-PZQ) | Cmax ([3]; single oral 200 mg/kg rac-PZQ) | AUC(0-t) [4] | Cmax [4] | also measured |
| --- | --- | --- | --- | --- | --- | --- | --- | --- | --- | --- | --- |
| O=C(C1CCC(O)CC1)N1CC(=O)N2CCc3ccccc3C2C1 (stereo not drawn) [4OH-PZQ] | 19400 ng·h/mL | 5360 ng/mL | 197000 ng·h/mL | 42600 ng/mL | 108000 ng·h/mL | 21700 ng/mL | 19400 ng·h/mL | 5360 ng/mL | 98500 ng·h/mL | 27600 ng/mL | AUClast and Cmax in 8HUM animals, fold lower compared to WT animals ([1]; 8HUM 25 mg/kg vs WT 400 mg/kg rac-PZQ, oral, uninfected): ~ fivefold |
| O=C(C1CCCCC1)N1CC(=O)N2CCc3ccccc3[C@@H]2C1 [R-PZQ] | 2860 ng·h/mL | 2210 ng/mL | 73600 ng·h/mL | 25800 ng/mL | 25700 ng·h/mL | 13200 ng/mL | 68300 ng·h/mL | 20800 ng/mL | 12000 ng·h/mL | 7740 ng/mL | – |
| O=C(C1CCCCC1)N1CC(=O)N2CCc3ccccc3C2C1 (racemic) [rac-PZQ, praziquantel] | – | – | – | – | – | – | – | – | – | – | Microsomal CLint [5]: 2.7 mL/min/g; Microsomal CLint [6]: 3.2 mL/min/g; reduction in adult worm burdens (S. mansoni [7]; single oral 400 mg/kg at 41 d postinfection, day 47, vs excipient controls): 93%; worm burden reduction, females (S. mansoni [7]; [10]): 95%; worm burden reduction, males (S. mansoni [7]; [10]): 90%; worm burden reduction (S. mansoni [8]; 8HUM mice, single oral 100 mg/kg, 100 mg/kg): 92%; worm burden reduction (S. mansoni [8]; 8HUM mice, single oral 100 mg/kg, listed as PZQ, 100 mg/kg): > 90%; worm burden reduction (S. mansoni [8]; 8HUM mice, single oral 200 mg/kg): 98%; reductions in worm burdens (S. mansoni [8]; 8HUM mice, single oral doses of 100 to 200 mg/kg bodyweight): > 90%; increase in efficacy in 8HUM mice vs WT mice at the same dose (S. mansoni [8]; single 100 mg/kg oral dose, 8HUM (this study) vs WT (ref 7)): approximately twofold; drug-induced efficacy (worm burden reduction) (S. mansoni [9]; WT animals, single oral dose of 400 mg/kg rac-PZQ, 400 mg/kg): ~ 94% and > 90%; reduction in worm burden (S. mansoni [9]; WT mice, single 100 mg/kg bodyweight oral dose, at most): ≤ 53% |
